Laboratory results taken from PMC8541575, “Optimization and Development of Selective Histone Deacetylase Inhibitor (MPT0B291)-Loaded Albumin Nanoparticles for Anticancer Therapy” (Pharmaceutics, 2021).

Key:
[1] = In vitro drug release by dialysis bag; type: physicochemical; settings: 0.25 mg/mL in propylene glycol, pH 7.4 phosphate buffer with 1% Tween 80, 37 °C
Protocol: The dialysis bag was subsequently placed into 25 mL of release medium (PBS) containing 1% v/v Tween 80. The temperature was maintained at 37.0 ± 0.5 °C, and the medium was stirred at a speed of 100 rpm. MPT0B291 which had been dissolved in propylene glycol (free MPT0B291; 0.25 mg/mL) was used as a control and was treated in the same manner. During a period of 48 h, the surrounding environment was maintained by replacing 2 mL of the release medium with an equal volume of fresh medium at regular intervals. The extraction solution was solubilized in 500 μL of acetonitrile and assayed by HPLC.

MIA PaCa-2 cells = test: Cell viability (MTT) assay; type: cell-based; settings: Homo sapiens, 24 h of exposure, read-out: 50% inhibitory concentration (IC50)
Protocol: Briefly, MIA PaCa-2 cells were seeded (5 × 10^3 cells/well) in 96-well culture plates. After 24 h of incubation in a humidified incubator at 37 °C with 5% CO2, the medium of adherent cells was replaced with serum-free culture medium and incubated with 200 μL of serial dilutions of HSA-NPs (0.01~1000 μg/mL) and MPT0B291-HSAX NPs ([…]). After another 24 h, 100 µL of MTT (500 μg/mL in PBS, pH 7.4) was added and incubated at 37 °C for 2 h. The medium was then removed, and 100 µL of DMSO was added to each well to dissolve the crystals. The optical density (OD) was measured at 540 nm using a microplate reader (Cytation™ 3 Cell Imaging Multi-Mode Reader, BioTek, Winooski, VT, USA). The cell survival rate was calculated as follows:(3) Cell survival rate (%)=Absorbance value of test solution group /Absorbance value of blank solution group ×100%

[2] = tested on: healthy Balb/c female mice; test: Maximum tolerated dose, single i.v. dose; type: in vivo
Protocol: The single-dose study was conducted using healthy female mice with four animals per group.

[3] = In vivo pharmacokinetic study after intravenous administration; settings: male, Sprague-Dawley, rat, plasma, rats, i.v., 5 mg/kg body weight, mean ± SD (n = 4)
Protocol: Male Sprague-Dawley rats (250 ± 15 g) were divided into two groups (with four rats per group). […] All collected blood samples were centrifuged at 4000 rpm and 4 °C for 10 min, and supernatant plasma samples were obtained and frozen at -80 °C for further analysis. Quantitative analysis of MPT0B291 in rat plasma by an ultra-precision liquid chromatographic tandem mass spectroscopic (UPLC-MS/MS) method was performed using an Agilent 1290 Infinity II LC System (Agilent, Wilmington, DE, USA) coupled with an Agilent 6470 triple quadrupole LC/MS system (Agilent Technologies, Santa Clara, CA, USA). Optimized chromatographic separation of MPT0B291 was conducted with an ACQUITY UPLC BEH C18 column (1.7 μm, 2.1 × 100 mm; Waters, Milford, MA, USA) at an oven temperature of 40 °C. The mobile phase was 0.1% (v/v) formic acid in water (mobile phase A) and acetonitrile containing 0.1% (v/v) formic acid (mobile phase B) with gradient elution at a flow rate of 0.3 mL/min. All analytical procedures were evaluated with positive electrospray ionization (ESI). The LC gradient was programmed in linear steps as follows: 0~0.5 min, 5% mobile phase B (v/v); 0.5~1 min, 5% mobile phase B to 100% mobile phase B (v/v); 1~2.8 min, 100% mobile phase B; 2.8~3 min, 100% mobile phase B to 5% mobile phase B (v/v); and 3~4 min, 5% mobile phase B (v/v). Quantification was achieved using the multiple reaction monitoring (MRM) mode at m/z 344.1 → 91.0 for MPT0B291. The following PK parameters were determined: the area under the concentration-time curve (AUC), maximum peak concentration (Cmax), time of maximum peak concentration (Tmax), and mean residence time (MRT). These parameters were determined by DAS software vers. 2.0. All data are presented as mean ± standard deviation (SD).

Compound: O=C(/C=C/c1cccc(S(=O)(=O)n2ccc3cccnc32)c1)NO [MPT0B291]
- Drug released within 1 h [1]: 60%
- Drug released within 8 h [1]: ~100%
- IC50 (MIA PaCa-2 cells): 4.71 µM
- Mortality after single i.v. dose of 150 mg/kg BW ([2]; n = 4): one mouse was found dead after 24 h and another one also died on the following day
- Maximum tolerated dose (MTD) ([2]; single dose, i.v. route): approximately 75 mg/kg BW
- AUC(0-inf) [3]: 293 ± 39.2 ng·h/mL
- AUC(0-t) ([3]; read-out: AUC0–24h): 291 ± 39.7 ng·h/mL
- clearance ([3]; read-out: CL (clearance)): 288 ± 36.7 mL/min/kg
- MRT ([3]; read-out: MRT (mean residence time)): 1.86 ± 0.66 h
- Vd ([3]; read-out: Vss (volume of distribution at steady state)): 32.6 ± 12.3 L/kg
- half-life ([3]; read-out: t1/2 (elimination half-life) (converted)): 124 ± 38.4 min
